# Measured values published in patent publication US20250295646A1, “METHODS OF USE OF T-TYPE CALCIUM CHANNEL MODULATORS” (Praxis Precision Medicines, Inc., priority 2022, published 2025).
# Like-named read-outs stand apart in the source and are kept apart here.
# Legend:
# [1] = test system: adult patients with essential tremor; experiment: Essential tremor trial Example 16 Part B open-label titration phase: TETRAS, mADL, ADL efficacy; type: in vivo, human; design: reduction in upper limb tremor amplitude / LS mean reduction in upper limb tremor amplitude / reduction in combined upper limb tremor amplitude: concentration or dose not given beside the values; conditions: for TETRAS ADL Score CFB LS Mean / TETRAS CULS Score CFB LS Mean / TETRAS PS Item 6: Archimedes Spiral (Left) Score CFB LS Mean / TETRAS PS Item 6: Archimedes Spiral (Right) Score CFB LS Mean / TETRAS PS Item 7: Handwriting Score CFB LS Mean / TETRAS PSTS Score CFB LS Mean / TETRAS ULS Score CFB LS Mean / TETRAS mADL (TETRAS modified total score) Score CFB LS Mean / TETRAS ADL CTA LS Mean % / TETRAS CULS CTA LS Mean % / TETRAS PS Item 6: Archimedes Spiral (Left) CTA LS Mean % / TETRAS PS Item 6: Archimedes Spiral (Right) CTA LS Mean % / TETRAS PS Item 7: Handwriting CTA LS Mean % / TETRAS PSTS CTA LS Mean % / TETRAS ULS CTA LS Mean % / TETRAS mADL CTA LS Mean %: Part B - OLT, FAS; for TETRAS ADL Score CFB LS Mean / TETRAS CULS Score CFB LS Mean / TETRAS PS Item 6: Archimedes Spiral (Left) Score CFB LS Mean / TETRAS PS Item 6: Archimedes Spiral (Right) Score CFB LS Mean / TETRAS PS Item 7: Handwriting Score CFB LS Mean / TETRAS PSTS Score CFB LS Mean / TETRAS ULS Score CFB LS Mean / TETRAS mADL (TETRAS modified total score) Score CFB LS Mean: change from pre-dose baseline; for TETRAS ADL CTA LS Mean % / TETRAS CULS CTA LS Mean % / TETRAS PS Item 6: Archimedes Spiral (Left) CTA LS Mean % / TETRAS PS Item 6: Archimedes Spiral (Right) CTA LS Mean % / TETRAS PS Item 7: Handwriting CTA LS Mean % / TETRAS PSTS CTA LS Mean % / TETRAS ULS CTA LS Mean % / TETRAS mADL CTA LS Mean %: from pre-dose baseline; for TETRAS ADL score, LS mean change from pre-dose baseline / TETRAS combined upper limb score, LS mean change from pre-dose baseline / TETRAS upper limb score, LS mean change from pre-dose baseline / mADL score, LS mean change from pre-dose baseline / reduction in combined upper limb tremor amplitude / reduction in upper limb tremor amplitude / ADL, LS mean change from pre-dose baseline / LS mean reduction in upper limb tremor amplitude / mADL, LS mean change from pre-dose baseline: Part B OLT
# Experimental: A two part trial (Part A and Part B as described below) was conducted to study the efficacy, safety, tolerability, and pharmacokinetics of the compound of formula (I) in adult patients with essential tremor (ET).
# Participants were males and females ages 18 and older with a clinical diagnosis of ET. Participants who have a history of any other medical, neurological, or psychiatric condition that may explain or cause tremor were excluded. Participants who have previously received treatment with formula (I) in any clinical trial (including Part A of the current trial for participants enrolling in Part B) were also excluded.
# In Part B, an open label titration phase and a randomized, double-blind, placebo-controlled trial was conducted. […] During the withdrawal phase, patients either continued receiving formula (I) at their current dose or switched to placebo, depending on the randomization, for 14 days (Day 43 to Day 56).
# [2] = Food effect (high-fat, high-calorie meal) on pharmacokinetics, single 20 mg dose; type: in vivo, human; conditions: for Tmax / AUC(0-t) / AUC(0-inf) / Cmax: human, plasma, 20 mg; for Tmax: oral, single 20 mg; for AUC(0-t) / AUC(0-inf) / Cmax: po
# Experimental: The effect of a high-fat, high-calorie meal on the pharmacokinetics of a compound of formula (II) was evaluated in an open-label, sequential fashion following a single 20 mg dose of formulation 5 in participants who had previously received a 20 mg dose of formulation 5 under fasted conditions.
# [3] = Day 7, subset with baseline upper limb scores ≥10
# [4] = Day 21, subset with baseline upper limb scores ≥10
compound,measurement,setting,value
"CC(C)(C)NC(=O)CN1CCC(CNC(=O)c2cc(F)cc(Cl)c2)CC1 [compound of formula (I), N-((1-(2-(tert-butylamino)-2-oxoethyl)piperidin-4-yl)methyl)-3-chloro-5-fluorobenzamide]",TETRAS ADL Score CFB LS Mean,[1]; Day 7,−1.986
same,TETRAS CULS Score CFB LS Mean,[1]; Day 7,−0.909
same,TETRAS PS Item 6: Archimedes Spiral (Left) Score CFB LS Mean,[1]; Day 7,0.221
same,TETRAS PS Item 6: Archimedes Spiral (Right) Score CFB LS Mean,[1]; Day 7,0.006
same,TETRAS PS Item 7: Handwriting Score CFB LS Mean,[1]; Day 7,−0.019
same,TETRAS PSTS Score CFB LS Mean,[1]; Day 7,−1.253
same,TETRAS ULS Score CFB LS Mean,[1]; Day 7,−0.967
same,TETRAS mADL (TETRAS modified total score) Score CFB LS Mean,[1]; Day 7,−2.862
same,TETRAS ADL CTA LS Mean %,[1]; Day 7,−7.29%
same,TETRAS CULS CTA LS Mean %,[1]; Day 7,−9.1%
same,TETRAS PS Item 6: Archimedes Spiral (Left) CTA LS Mean %,[1]; Day 7,22.4%
same,TETRAS PS Item 6: Archimedes Spiral (Right) CTA LS Mean %,[1]; Day 7,0.6%
same,TETRAS PS Item 7: Handwriting CTA LS Mean %,[1]; Day 7,−2.2%
same,TETRAS PSTS CTA LS Mean %,[1]; Day 7,−8.6%
same,TETRAS ULS CTA LS Mean %,[1]; Day 7,−16.9%
same,TETRAS mADL CTA LS Mean %,[1]; Day 7,−18.49%
same,TETRAS ADL Score CFB LS Mean,[1]; Day 21,−3.475
same,TETRAS CULS Score CFB LS Mean,[1]; Day 21,−1.320
same,TETRAS PS Item 6: Archimedes Spiral (Left) Score CFB LS Mean,[1]; Day 21,−0.012
same,TETRAS PS Item 6: Archimedes Spiral (Right) Score CFB LS Mean,[1]; Day 21,−0.240
same,TETRAS PS Item 7: Handwriting Score CFB LS Mean,[1]; Day 21,0.107
same,TETRAS PSTS Score CFB LS Mean,[1]; Day 21,−1.449
same,TETRAS ULS Score CFB LS Mean,[1]; Day 21,−1.143
same,TETRAS mADL (TETRAS modified total score) Score CFB LS Mean,[1]; Day 21,−2.812
same,TETRAS ADL CTA LS Mean %,[1]; Day 21,−12.02%
same,TETRAS CULS CTA LS Mean %,[1]; Day 21,−12.9%
same,TETRAS PS Item 6: Archimedes Spiral (Left) CTA LS Mean %,[1]; Day 21,−1.3%
same,TETRAS PS Item 6: Archimedes Spiral (Right) CTA LS Mean %,[1]; Day 21,−24.2%
same,TETRAS PS Item 7: Handwriting CTA LS Mean %,[1]; Day 21,11.5%
same,TETRAS PSTS CTA LS Mean %,[1]; Day 21,−9.9%
same,TETRAS ULS CTA LS Mean %,[1]; Day 21,−19.7%
same,TETRAS mADL CTA LS Mean %,[1]; Day 21,−14.31%
same,TETRAS ADL Score CFB LS Mean,"[1]; Day 42, 6 hours post-dose",−8.207
same,TETRAS CULS Score CFB LS Mean,"[1]; Day 42, 6 hours post-dose",−1.882
same,TETRAS PS Item 6: Archimedes Spiral (Left) Score CFB LS Mean,"[1]; Day 42, 6 hours post-dose",−0.072
same,TETRAS PS Item 6: Archimedes Spiral (Right) Score CFB LS Mean,"[1]; Day 42, 6 hours post-dose",−0.239
same,TETRAS PS Item 7: Handwriting Score CFB LS Mean,"[1]; Day 42, 6 hours post-dose",−0.054
same,TETRAS PSTS Score CFB LS Mean,"[1]; Day 42, 6 hours post-dose",−2.771
same,TETRAS ULS Score CFB LS Mean,"[1]; Day 42, 6 hours post-dose",−2.090
same,TETRAS mADL (TETRAS modified total score) Score CFB LS Mean,"[1]; Day 42, 6 hours post-dose",−6.669
same,TETRAS ADL CTA LS Mean %,"[1]; Day 42, 6 hours post-dose",−29.59%
same,TETRAS CULS CTA LS Mean %,"[1]; Day 42, 6 hours post-dose",−17.9%
same,TETRAS PS Item 6: Archimedes Spiral (Left) CTA LS Mean %,"[1]; Day 42, 6 hours post-dose",−8.0%
same,TETRAS PS Item 6: Archimedes Spiral (Right) CTA LS Mean %,"[1]; Day 42, 6 hours post-dose",−24.1%
same,TETRAS PS Item 7: Handwriting CTA LS Mean %,"[1]; Day 42, 6 hours post-dose",−6.0%
same,TETRAS PSTS CTA LS Mean %,"[1]; Day 42, 6 hours post-dose",−18.1%
same,TETRAS ULS CTA LS Mean %,"[1]; Day 42, 6 hours post-dose",−33.0%
same,TETRAS mADL CTA LS Mean %,"[1]; Day 42, 6 hours post-dose",−42.04%
same,"TETRAS ADL score, LS mean change from pre-dose baseline",[1]; Day 7,−1.986
same,"TETRAS combined upper limb score, LS mean change from pre-dose baseline",[1]; Day 7,−0.909
same,"TETRAS upper limb score, LS mean change from pre-dose baseline",[1]; Day 7,−0.967
same,"mADL score, LS mean change from pre-dose baseline",[1]; Day 7,−2.862
same,reduction in combined upper limb tremor amplitude,[1]; Day 7,9.1%
same,reduction in upper limb tremor amplitude,[1]; Day 7,16.9%
same,"ADL, LS mean change from pre-dose baseline",[1]; [3],−2.222
same,LS mean reduction in upper limb tremor amplitude,[1]; [3],22.9%
same,"mADL, LS mean change from pre-dose baseline",[1]; [3],−3.011
same,"TETRAS ADL score, LS mean change from pre-dose baseline",[1]; Day 21,−3.475
same,"TETRAS combined upper limb score, LS mean change from pre-dose baseline",[1]; Day 21,−1.320
same,"TETRAS upper limb score, LS mean change from pre-dose baseline",[1]; Day 21,−1.143
same,"mADL score, LS mean change from pre-dose baseline",[1]; Day 21,−2.812
same,reduction in combined upper limb tremor amplitude,[1]; Day 21,12.9%
same,reduction in upper limb tremor amplitude,[1]; Day 21,19.7%
same,"ADL, LS mean change from pre-dose baseline",[1]; [4],−4.444
same,LS mean reduction in upper limb tremor amplitude,[1]; [4],26.7%
same,"mADL, LS mean change from pre-dose baseline",[1]; [4],−3.773
same,"TETRAS ADL score, LS mean change from pre-dose baseline",[1]; Day 42,−8.207
same,"TETRAS combined upper limb score, LS mean change from pre-dose baseline",[1]; Day 42,−1.882
same,"TETRAS upper limb score, LS mean change from pre-dose baseline",[1]; Day 42,−2.090
same,"mADL score, LS mean change from pre-dose baseline",[1]; Day 42,−6.669
same,reduction in combined upper limb tremor amplitude,[1]; Day 42,17.9%
same,reduction in upper limb tremor amplitude,[1]; Day 42,33.0%
"CC(C)(C)NC(=O)CN1CCC(CNC(=O)c2cc(F)cc(Cl)c2)CC1.Cl [compound of formula (II), N-((1-(2-(tert-butylamino)-2-oxoethyl)piperidin-4-yl)methyl)-3-chloro-5-fluorobenzamide hydrochloride]",Tmax,[2]; fasted,4 h
same,Tmax,"[2]; high-fat, high-calorie meal",5 h
same,AUC(0-t),"[2]; single 20 mg oral dose, fasted, read-out: AUClast, Fasted Geometric Mean (Adjusted)",905 ng·h/mL
same,AUC(0-inf),"[2]; single 20 mg oral dose, fasted, read-out: AUC∞, Fasted Geometric Mean (Adjusted)",942 ng·h/mL
same,Cmax,"[2]; single 20 mg oral dose, fasted, read-out: Cmax, Fasted Geometric Mean (Adjusted)",43.6 ng/mL
same,AUC(0-t),"[2]; single 20 mg oral dose, high-fat/high-calorie meal, read-out: AUClast, Fed Geometric Mean (Adjusted)",1040 ng·h/mL
same,AUC(0-inf),"[2]; single 20 mg oral dose, high-fat/high-calorie meal, read-out: AUC∞, Fed Geometric Mean (Adjusted)",1080 ng·h/mL
same,Cmax,"[2]; single 20 mg oral dose, high-fat/high-calorie meal, read-out: Cmax, Fed Geometric Mean (Adjusted)",64.7 ng/mL
same,AUClast Ratio (fed/fasted),[2]; single 20 mg oral dose,1.14
same,AUC∞ Ratio (fed/fasted),[2]; single 20 mg oral dose,1.15
same,Cmax Ratio (fed/fasted),[2]; single 20 mg oral dose,1.49
